SMILES strings stand for the structures. Results filed as inconclusive are left out. Calls of active or inactive are those of the source.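 How the source made its calls: active means Compounds that reduce signal, with fitted half-maximal dose at or under twice the top valid tested dose; inconclusive means Poor fit, or flat curve losing 30 to 70% of signal; inactive means Potency past limit, flat within 30%, or opposite direction.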

One assay in a line: HEK293T cell cytotoxicity, dose response, cytotoxicity control, ATP luminescence, cherry-pick samples (AID 687005). To be noted: HEK293T viability, ATP luminescence (CellTiter-Glo), 48 h; at 23.5 µM (top of the series). (In ATP-based viability assays light output follows the ATP content of the culture.)
As for `COCC(=O)N1C[C@H](C)[C@@H](OC)CN(C)C(=O)c2ccc(NS(C)(=O)=O)cc2OC[C@@H]1C`, the activity change, negative = cytotoxicity was 17.4% (inactive).
Same read-out and setting: next, `C[C@@H]1CN([C@H](C)CO)C(=O)c2cc(NS(=O)(=O)c3ccccc3)ccc2O[C@H]1CN(C)C(=O)NC1CCCCC1`: -10.5% (inactive); `Cc1ccc(S(=O)(=O)Nc2ccc3c(c2)C(=O)N([C@@H](C)CO)C[C@H](C)[C@H](CN(C)C(=O)Nc2ccc(C(F)(F)F)cc2)O3)cc1`: -1.43% (inactive); `C[C@H]1CN([C@@H](C)CO)C(=O)Cc2cc(NC(=O)C3CC3)ccc2O[C@H]1CN(C)Cc1ccc(-c2ccccc2)cc1`: -24.1% (inactive).
Same read-out and setting: next, `C[C@@H]1CN([C@H](C)CO)C(=O)c2cc(NS(=O)(=O)c3cn(C)cn3)ccc2O[C@H]1CN(C)C(=O)Nc1cccc2ccccc12`: 17.8% (inactive); `Cc1noc(C)c1S(=O)(=O)Nc1ccc2c(c1)CC(=O)N([C@@H](C)CO)C[C@@H](C)[C@@H](CN(C)S(=O)(=O)c1cccs1)O2`: -16.9% (inactive); `CNC(=O)C[C@@H]1CC[C@@H]2[C@H](COc3ccc(NC(=O)c4cc(C)on4)cc3C(=O)N2C)O1`: 26.8% (inactive).

The assay is the same for the next values; noted with them: HEK293T viability, ATP luminescence (CellTiter-Glo), 48 h; at 26 µM (top of the series).
Consider `O=C(CN(c1ccc(F)cc1)S(=O)(=O)c1ccccc1)N1CCOCC1`, for which the activity change, negative = cytotoxicity is -20% (inactive).
On the same count and under the same terms, as for `Cc1noc(C)c1NC(=O)N(C)C[C@H]1Oc2ccc(NC(=O)C3CC3)cc2CC(=O)N([C@@H](C)CO)C[C@H]1C`, the figure is 0.766% (inactive).
The same measure, in the same setting: next, `O=C(NCCc1ccccc1)[C@@H]1[C@@H](CO)[C@@H]2Cn3c(cccc3=O)[C@H]1N2C(=O)C1CCC1`: 8.28% (inactive); `CC(C)NC(=O)Nc1ccc2c(c1)C(=O)N([C@@H](C)CO)C[C@H](C)[C@@H](CN(C)C(=O)CCC(F)(F)F)OCCCC[C@H](C)O2`: 42.8% (inactive).
Take `CNC(=O)CSc1ncnc2c1cnn2-c1ccccc1`: the activity change, negative = cytotoxicity was 10.1% (inactive).
Still for that read-out and setting: as for `CCOC(=O)NC(=S)Nc1ccc(C(C)(C)C)cc1Br`, the figure is 9.89% (inactive).
The same measure, in the same setting: as for `Cc1noc(C)c1NC(=O)Nc1cccc2c1O[C@@H](CN(C)S(=O)(=O)c1cn(C)cn1)[C@@H](C)CN([C@@H](C)CO)C2=O`, the figure is -3.21% (inactive).
For `C[C@@H]1CN([C@@H](C)CO)C(=O)c2cc(NS(=O)(=O)c3cn(C)cn3)ccc2O[C@@H]1CN(C)C(=O)Nc1cccc2ccccc12`, the activity change, negative = cytotoxicity is -15.2% (inactive).
As to `CC(C)CC#Cc1cnc2c(c1)C(=O)N([C@H](C)CO)C[C@H](C)[C@@H](CN(C)Cc1cccc(F)c1)O2`, the activity change, negative = cytotoxicity is -9.35% (inactive).
Still for that read-out and setting: next, `CCCNC(=O)C[C@@H]1CC[C@@H]2[C@H](COc3ccc(NC(=O)CCC)cc3C(=O)N2C)O1`: 52.7% (inactive); `CCC(=O)N1[C@H](CO)[C@H](c2ccccc2)[C@H]1CN(CC)C(=O)c1cccc(F)c1`: -0.378% (inactive).
`C[C@@H]1CN([C@@H](C)CO)C(=O)c2cc(-c3cncnc3)cnc2O[C@H]1CN(C)C(=O)Cc1ccccc1`: the activity change, negative = cytotoxicity was -0.143% (inactive).
Same read-out and setting: as for `CCC(C)(C(=O)NC1CCCC1)N(C(C)=O)c1ccc(C)cc1` (stereo unspecified), the figure is 9.31% (inactive); as for `CO[C@H]1CN(C)C(=O)c2ccc(NC(=O)C3CC3)cc2OC[C@@H](C)N(Cc2ccc(F)cc2)C[C@@H]1C`, 37.9% (inactive); as for `CC(=O)N1[C@@H]2c3ccc(-c4ccccc4)c(=O)n3C[C@H]1[C@H](CO)[C@H]2C(=O)Nc1ccccc1`, 17.2% (inactive).
Turning to `Cc1cccc(C)c1NC(=O)C(C)N1CCCC1` (stereo unspecified), the activity change, negative = cytotoxicity is -44.2% (inactive).
Same read-out and setting: next, `CNC[C@H]1Oc2c(NS(=O)(=O)c3cccs3)cccc2C(=O)N([C@H](C)CO)C[C@@H]1C`: -26.9% (inactive); `CN1C(=O)c2cc(NS(=O)(=O)c3cccc(F)c3)ccc2OC[C@H]2O[C@H](CC(=O)O)CC[C@H]21`: 29.9% (inactive).
Still for that read-out and setting: as for `CCCNC(=O)C[C@H]1CC[C@H]2[C@@H](COC[C@@H](O)CN2S(=O)(=O)c2ccc(Oc3ccccc3)cc2)O1`, the figure is -8.05% (inactive); as for `CCC(C)c1ccc(NC(=S)N2CCN(c3ccccn3)CC2)cc1` (stereo unspecified), 13.7% (inactive); as for `COc1ccccc1CNC(=S)NCc1ccc(Cl)cc1`, 13.5% (inactive).
With `CO[C@H]1CN(C)C(=O)c2cc(NC(=O)C3CC3)ccc2OC[C@@H](C)N(Cc2cncnc2)C[C@H]1C`, the activity change, negative = cytotoxicity was -23.3% (inactive).
Turning to `CCCN1C[C@@H](C)[C@H](OC)CN(C)C(=O)c2ccc(NC(=O)c3cccc(F)c3)cc2OC[C@@H]1C`, the activity change, negative = cytotoxicity was -7.98% (inactive).
The same measure, in the same setting: as for `CC1(C(=O)Nc2ccc3ccccc3c2)CCC(=O)N1C1CC1` (stereo unspecified), the figure is -28.4% (inactive).
For the molecule `O=C(NC(=S)Nc1ccccc1N1CCOCC1)c1ccccc1F`, the activity change, negative = cytotoxicity was -0.484% (inactive).
Still for that read-out and setting: as for `CCCC(=O)Nc1ccc2c(c1)OC[C@@H](C)N(Cc1ccccn1)C[C@@H](C)[C@H](OC)CN(C)C2=O`, the figure is 25.3% (inactive).
On the same count and under the same terms, next, `CNC(=O)C[C@@H]1CC[C@H]2[C@@H](COC[C@H](O)CN2C(=O)Nc2ccc3c(c2)OCO3)O1`: -5.64% (inactive); `CC1CCCCN1C(=O)CSc1nc(C2CC2)nc2c1cnn2-c1ccccc1` (stereo unspecified): 39.5% (inactive); `C[C@H]1CN([C@@H](C)CO)C(=O)c2ccccc2-c2ccccc2CO[C@H]1CN(C)S(=O)(=O)c1cccc(C#N)c1`: -8.25% (inactive).
Turning to `COc1cccc(S(=O)(=O)Nc2ccc3c(c2)OC[C@H](C)NC[C@@H](C)[C@H](OC)CN(C)C3=O)c1`, the activity change, negative = cytotoxicity was -4.71% (inactive).
Turning to `CC(C)NC(=O)Nc1ccc2c(c1)CC(=O)N([C@H](C)CO)C[C@H](C)[C@@H](CN(C)C(=O)Nc1ccc3c(c1)OCO3)O2`, the activity change, negative = cytotoxicity is 31.9% (inactive).
On the same count and under the same terms, as for `CC(C)NC(=O)N(C)C[C@@H]1Oc2c(NC(=O)C3CCCCC3)cccc2C(=O)N([C@@H](C)CO)C[C@@H]1C`, the figure is 24.4% (inactive); as for `O=C(NC1CCCC1)N1CCCCN2[C@H](CO)[C@@H](c3ccc(-c4cncnc4)cc3)[C@H]2C1`, 41.2% (inactive); as for `CCNC(=O)CN(c1ccc(Cl)cc1)S(=O)(=O)c1ccccc1`, 4.12% (inactive).
On the same count and under the same terms, next, `CC(=O)N1[C@@H](CO)[C@H](c2ccc(-c3ccccc3)cc2)[C@@H]1CNC(=O)C1CC1`: 13.9% (inactive); `C[C@H](CO)N1C[C@H](C)[C@@H](CN(C)S(=O)(=O)c2cn(C)cn2)Oc2c(NC(=O)Nc3ccccc3)cccc2C1=O`: 1.19% (inactive).
Still for that read-out and setting: next, `C[C@H]1CN([C@@H](C)CO)C(=O)c2cc(NC(=O)Nc3cccc4ccccc34)ccc2O[C@@H]1CN(C)C(=O)Nc1ccc(C(F)(F)F)cc1`: 1.29% (inactive); `COCCNC(=O)C[C@H]1C=C[C@H](NS(=O)(=O)c2ccc(C)cc2)[C@@H](CO)O1`: -8.29% (inactive); `Cc1noc(C)c1S(=O)(=O)Nc1ccc2c(c1)C(=O)N([C@@H](C)CO)C[C@@H](C)[C@@H](CN(C)Cc1ccccc1)OCCCC[C@H](C)O2`: -12.2% (inactive).
As for `CC(C)CC#Cc1cnc2c(c1)C(=O)N([C@@H](C)CO)C[C@H](C)[C@H](CN(C)C(=O)c1ccc3c(c1)OCO3)O2`, the activity change, negative = cytotoxicity is 16.5% (inactive).
Take `Cc1cccc(OCC(=O)NCc2ccccc2)c1`: the activity change, negative = cytotoxicity is -36.8% (inactive).
On to `CC(=O)c1sc(NC(=O)c2cc(-c3ccccc3)nn2-c2ccccc2)nc1C`, for which the activity change, negative = cytotoxicity was 38.5% (inactive).
Take `CO[C@H]1CN(C)C(=O)c2cc(NS(=O)(=O)CC(F)(F)F)ccc2OC[C@H](C)N(Cc2cccnc2)C[C@@H]1C`: the activity change, negative = cytotoxicity is 20.5% (inactive).
On the same count and under the same terms, next, `Cc1noc(C)c1NC(=O)Nc1ccc2c(c1)C(=O)N([C@H](C)CO)C[C@@H](C)[C@H](CN(C)C(=O)Nc1ccc(F)cc1)OCCCC[C@@H](C)O2`: -26.1% (inactive); `COc1cccc(S(=O)(=O)Nc2ccc3c(c2)OC[C@@H](C)NC[C@H](C)[C@@H](OC)CN(C)C3=O)c1`: -6.17% (inactive); `Cc1cccc(C)c1NC(=O)C(C)N1CCCCC1` (stereo unspecified): 6.43% (inactive).
Still for that read-out and setting: as for `CO[C@@H]1CN(C)C(=O)c2cc(NS(=O)(=O)c3ccc(C)cc3)ccc2OC[C@@H](C)N(C)C[C@@H]1C`, the figure is 5.91% (inactive); as for `Cc1ccc(C(=O)NC(=S)Nc2ccccc2N2CCCC2)cc1[N+](=O)[O-]`, -8.33% (inactive); as for `CNC(=O)C[C@@H]1CC[C@@H]2[C@H](COC[C@@H](O)CN2C(=O)Nc2ccc3c(c2)OCO3)O1`, 25% (inactive).
Still for that read-out and setting: as for `Cc1cccc(C)c1NC(=O)C1(C)CCC(=O)N1CCCn1ccnc1` (stereo unspecified), the figure is -14.5% (inactive).
`Cc1cc(C(=O)NC(=S)Nc2ccccc2N2CCCC2)ccc1[N+](=O)[O-]`: the activity change, negative = cytotoxicity was -6.6% (inactive).
With `COC(=O)C1=C(C)N(Cc2ccccc2)C(=S)NC1c1ccc(Cl)cc1` (stereo unspecified), the activity change, negative = cytotoxicity was -9.7% (inactive).
The same measure, in the same setting: as for `COc1ccc(CN(C)C[C@@H]2OCCCC[C@H](C)Oc3ccc(N(C)C)cc3C(=O)N([C@H](C)CO)C[C@@H]2C)cc1`, the figure is 12.7% (inactive); as for `O=C1CCC(C(=O)Nc2ccc(Cl)cc2)N1` (stereo unspecified), 11% (inactive).

These data come from PubChem BioAssay AID687005 (Broad Institute, 2013).
